Drawing on publication PMC9543379, “Dihydroxy‐Acid Dehydratases From Pathogenic Bacteria: Emerging Drug Targets to Combat Antibiotic Resistance” (Chemistry (Weinheim an Der Bergstrasse, Germany), 2022), this text covers Ki for two molecules.

What all share (format): biochemical
Experiment [1] addresses T1, SaDHAD (dihydroxy-acid dehydratase) (Staphylococcus aureus, UniProt Q2FWK7).
T1 construct: gene ilvD; hexa-histidine tag at the N-terminal, pET-28a
The experiment is described as follows: DNPH colorimetric endpoint assay with DHIV, no pre-incubation.

Experiment [2] concerns the target T2, CjDHAD (dihydroxy-acid dehydratase) (Campylobacter jejuni, UniProt Q9PJ98).
T2 construct: gene ilvD; hexa-histidine tag at the N-terminal, pET-28a
The experiment is described as above.

Experiment [3] deals with T1, SaDHAD (dihydroxy-acid dehydratase). Put plainly: DNPH colorimetric endpoint assay with DHIV, 30-min pre-incubation.
Experiment [4] addresses T2, CjDHAD (dihydroxy-acid dehydratase). The description is as above.

T1 sequence (Q2FWK7 whole entry): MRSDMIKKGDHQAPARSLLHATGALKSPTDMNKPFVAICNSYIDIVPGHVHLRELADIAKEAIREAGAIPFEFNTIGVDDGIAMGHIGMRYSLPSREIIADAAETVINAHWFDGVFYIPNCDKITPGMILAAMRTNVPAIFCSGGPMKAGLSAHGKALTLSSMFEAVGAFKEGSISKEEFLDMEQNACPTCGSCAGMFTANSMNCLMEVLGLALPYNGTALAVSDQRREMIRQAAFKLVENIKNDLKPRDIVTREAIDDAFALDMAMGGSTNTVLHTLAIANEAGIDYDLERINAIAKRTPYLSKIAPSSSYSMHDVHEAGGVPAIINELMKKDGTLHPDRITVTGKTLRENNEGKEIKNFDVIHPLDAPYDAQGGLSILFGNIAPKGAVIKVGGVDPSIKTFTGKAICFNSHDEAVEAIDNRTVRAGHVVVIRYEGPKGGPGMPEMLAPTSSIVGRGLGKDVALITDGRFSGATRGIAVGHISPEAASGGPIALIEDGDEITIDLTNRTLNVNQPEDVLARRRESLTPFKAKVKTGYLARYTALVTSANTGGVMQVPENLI
T2 sequence (Q9PJ98 whole entry): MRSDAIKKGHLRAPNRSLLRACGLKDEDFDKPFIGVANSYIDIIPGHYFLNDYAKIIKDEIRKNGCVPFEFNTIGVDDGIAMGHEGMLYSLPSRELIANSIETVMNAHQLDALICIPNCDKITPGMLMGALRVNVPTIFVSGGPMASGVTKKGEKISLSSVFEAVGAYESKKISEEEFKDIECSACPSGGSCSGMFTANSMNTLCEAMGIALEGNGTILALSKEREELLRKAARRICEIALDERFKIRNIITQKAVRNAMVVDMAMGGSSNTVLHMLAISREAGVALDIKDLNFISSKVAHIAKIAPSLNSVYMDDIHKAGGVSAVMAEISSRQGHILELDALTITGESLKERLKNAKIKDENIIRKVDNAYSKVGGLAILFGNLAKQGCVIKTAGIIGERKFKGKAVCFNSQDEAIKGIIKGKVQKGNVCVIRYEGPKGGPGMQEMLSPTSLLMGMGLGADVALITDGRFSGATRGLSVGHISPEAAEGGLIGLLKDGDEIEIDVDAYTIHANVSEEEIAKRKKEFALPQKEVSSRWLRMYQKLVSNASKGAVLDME

On to `CC(C)=C1CC[C@]23CO[C@H](C2)[C@@](O)(C(=O)O)CC[C@@H]13` [aspterric acid], for which the inhibition constant Ki turned out to be 51.6 µM in experiment [1] and 35.1 µM in experiment [2].

On to `CC(C)N(O)C(=O)C(=O)O` [IpOHA], for which the inhibition constant Ki amounted to 7.8 µM in experiment [3] and 32.9 µM in experiment [4].
